These results are taken from ChEMBL document CHEMBL1201862, “PubChem BioAssay data set” (2004).

Activity calls are given as the source filed them.

The IC50 is the concentration needed to halve the response being measured. A word on the AC50: it is the concentration giving half of the maximal activity seen. The EC50 is the concentration that produces a half-maximal response.

One test has as its target Albumin (Bos taurus, UniProt P02769). As to the kind of experiment: Counterscreen for inhibitors of T-cell receptor (TCR)-CD3 interaction: Fluorescence-based biochemical high throughput dose response assay to identify inhibitors of T-cell receptor (TCR)-CD3 interaction using a TAMRA-labeled BSA probe. It is filed as functional.
A short description of test [1]: Counterscreen for inhibitors of Trypanosoma brucei methionyl tRNA synthetase (MetRS): Luminescence-based cell-based high throughput dose response assay to identify compounds that are cytotoxic to Jurkat human T lymphocyte cells. The test is classed as functional.
Test [2] concerns the target T1, Methionyl-tRNA synthetase, putative (Trypanosoma brucei brucei, UniProt Q38C91).
T1 sequence (Q38C91 whole entry): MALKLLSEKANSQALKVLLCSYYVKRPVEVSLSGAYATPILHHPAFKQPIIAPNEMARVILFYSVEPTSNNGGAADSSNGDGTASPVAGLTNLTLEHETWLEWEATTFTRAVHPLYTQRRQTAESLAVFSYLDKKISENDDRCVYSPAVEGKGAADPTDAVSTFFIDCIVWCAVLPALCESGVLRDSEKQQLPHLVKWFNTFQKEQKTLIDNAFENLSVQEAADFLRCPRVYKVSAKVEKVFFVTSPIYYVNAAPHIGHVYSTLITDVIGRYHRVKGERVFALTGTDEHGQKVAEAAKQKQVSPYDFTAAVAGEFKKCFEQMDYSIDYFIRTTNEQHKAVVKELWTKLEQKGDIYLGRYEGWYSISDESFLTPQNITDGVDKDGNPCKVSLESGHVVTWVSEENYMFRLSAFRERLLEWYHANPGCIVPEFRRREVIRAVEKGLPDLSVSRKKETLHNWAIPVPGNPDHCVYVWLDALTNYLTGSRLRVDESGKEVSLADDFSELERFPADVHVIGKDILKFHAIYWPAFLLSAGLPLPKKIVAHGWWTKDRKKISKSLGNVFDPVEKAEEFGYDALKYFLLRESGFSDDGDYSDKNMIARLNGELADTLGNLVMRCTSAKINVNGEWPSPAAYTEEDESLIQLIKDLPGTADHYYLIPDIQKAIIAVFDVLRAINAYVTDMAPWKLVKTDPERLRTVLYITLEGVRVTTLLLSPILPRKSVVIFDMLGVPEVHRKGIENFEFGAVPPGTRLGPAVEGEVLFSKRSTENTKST
The test is classed as functional, Trypanosoma brucei brucei strain 927/4 GUTat10.1.

Test [3] deals with T1, Methionyl-tRNA synthetase, putative. It is filed as functional, Trypanosoma brucei brucei strain 927/4 GUTat10.1. This is another data set of the same source.
The target in test [4] is Eukaryotic translation initiation factor 4E (Mus musculus, UniProt P63073). As to the kind of experiment: blockers of eIF4G binding by eIF4E – biochemical, TR-FRET, dose response (AID 855).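 Further: potency for disrupting eIF4E binding to eIF4GI seen as loss of FRET.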 It is filed as functional. A general note: TR-FRET usually uses a lanthanide donor and a delayed reading to cut background.
Test [5] addresses T2, Long-chain-fatty-acid--AMP ligase FadD28 (Mycobacterium tuberculosis, UniProt P9WQ59).
T2 sequence (P9WQ59 whole entry): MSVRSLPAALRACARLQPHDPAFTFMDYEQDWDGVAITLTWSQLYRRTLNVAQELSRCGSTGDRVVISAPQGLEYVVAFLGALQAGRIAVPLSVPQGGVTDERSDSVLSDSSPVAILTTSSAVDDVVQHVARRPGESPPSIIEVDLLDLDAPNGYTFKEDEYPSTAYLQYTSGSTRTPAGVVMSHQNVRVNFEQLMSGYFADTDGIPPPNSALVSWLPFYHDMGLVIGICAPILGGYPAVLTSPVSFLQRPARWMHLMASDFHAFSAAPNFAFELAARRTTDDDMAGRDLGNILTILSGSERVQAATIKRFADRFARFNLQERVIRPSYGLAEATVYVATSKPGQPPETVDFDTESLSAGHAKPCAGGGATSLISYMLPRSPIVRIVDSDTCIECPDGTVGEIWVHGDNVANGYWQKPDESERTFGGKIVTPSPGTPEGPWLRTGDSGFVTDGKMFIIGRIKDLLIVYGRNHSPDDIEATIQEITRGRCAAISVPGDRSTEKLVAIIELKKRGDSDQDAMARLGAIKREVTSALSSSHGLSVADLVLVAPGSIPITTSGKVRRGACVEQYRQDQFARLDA
The test can be described thus: Fluorescence polarization aasay to screen for inhibitors that compete for the binding of FadD28 to a bisubstrate Measured in Biochemical System Using Plate Reader - 2147-01_Inhibitor_Dose_CherryPick_Activity. The test is classed as functional, Mycobacterium tuberculosis H37Rv.

A further test can be described thus: cells. The test is classed as functional, cell-based. The conditions noted are these: HEK-CNG.
A further test concerns the target T3, Galanin receptor type 3 (Homo sapiens, UniProt O60755).
T3 sequence (O60755 whole entry): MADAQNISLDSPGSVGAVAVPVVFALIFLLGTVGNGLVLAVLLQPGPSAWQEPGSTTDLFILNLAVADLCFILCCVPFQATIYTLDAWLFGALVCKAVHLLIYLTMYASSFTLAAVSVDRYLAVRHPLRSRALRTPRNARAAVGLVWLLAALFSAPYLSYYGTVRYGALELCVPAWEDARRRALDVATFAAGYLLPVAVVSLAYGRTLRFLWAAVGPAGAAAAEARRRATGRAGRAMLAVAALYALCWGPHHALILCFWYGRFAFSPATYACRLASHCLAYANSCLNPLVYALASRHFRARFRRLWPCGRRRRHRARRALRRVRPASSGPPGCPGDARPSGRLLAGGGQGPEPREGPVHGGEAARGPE
The test can be described thus: Fluorescence-based cell-based primary high throughput dose response assay to identify antagonists of the Galanin Receptor 3 (GalR3). It is filed as functional.

Test [6] concerns the target T4, Fructose-bisphosphate aldolase (Mycobacterium tuberculosis, UniProt P9WQA3).
T4 sequence (P9WQA3 whole entry): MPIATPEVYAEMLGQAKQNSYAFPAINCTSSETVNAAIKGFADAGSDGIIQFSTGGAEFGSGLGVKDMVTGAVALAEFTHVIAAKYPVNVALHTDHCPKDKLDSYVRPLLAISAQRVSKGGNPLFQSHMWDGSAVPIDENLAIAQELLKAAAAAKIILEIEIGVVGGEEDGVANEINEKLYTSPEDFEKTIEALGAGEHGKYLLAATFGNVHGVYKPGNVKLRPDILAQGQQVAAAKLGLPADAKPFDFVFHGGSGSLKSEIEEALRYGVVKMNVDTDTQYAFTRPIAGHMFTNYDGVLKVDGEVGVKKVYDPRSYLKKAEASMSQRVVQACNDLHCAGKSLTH
The test can be described thus: Fluorescence-based biochemical high throughput dose response assay for inhibitors of the fructose-bisphosphate aldolase (FBA) of M. tuberculosis. The test is classed as functional.

Test [7] is described as follows: A cytotoxicity screen of small molecule inhibitors of the PhoP region in Salmonella typhi identified in the primary screen. [Related pubchem assays: 1850, 1864, 1985 ]. The test is classed as functional.
The next test deals with Large T antigen (Simian virus 40, UniProt P03070). It is filed as functional, Betapolyomavirus macacae.
Test [8] deals with T5, Sentrin-specific protease 8 (Homo sapiens, UniProt Q96LD8).
T5 sequence (Q96LD8 whole entry): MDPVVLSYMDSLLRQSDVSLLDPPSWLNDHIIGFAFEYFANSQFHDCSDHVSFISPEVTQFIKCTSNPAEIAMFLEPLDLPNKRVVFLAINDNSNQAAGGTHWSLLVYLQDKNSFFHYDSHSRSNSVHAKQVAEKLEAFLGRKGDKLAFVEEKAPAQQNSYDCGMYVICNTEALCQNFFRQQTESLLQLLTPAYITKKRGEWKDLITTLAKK
It is filed as functional.

Test [9] has as its target T5, Sentrin-specific protease 8. The test is classed as functional. The source holds these as a separate data set.
In a further test the target is Genome polyprotein (dengue virus type 2, UniProt P29990). The test can be described thus: flavivirus cap methylation enzyme inhibition – biochemical, confirmation dose response, primary screen (AID 588689). The test is classed as functional.
Test [10] deals with Induced myeloid leukemia cell differentiation protein Mcl-1 (Homo sapiens, UniProt Q07820). It is filed as functional.
A short description of test [11]: NIH-3T3 fibroblast cytotoxicity, dose response, cytotoxicity control, cell-based, fluorescence, Alamar Blue, secondary assay (AID 2327).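 Further: NIH-3T3 mouse fibroblasts cultured with fluconazole at 8 µg/mL.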 It is filed as functional. A general note: Alamar Blue is a resazurin reagent that responds to reducing activity.
Test [12] in a line: fluconazole-exposed Candida albicans growth modulators – fluorescence, retest, confirmation (AID 2467). It is filed as functional, cell-based.
Test [13] has as its target T6, Mannose-6-phosphate isomerase (Homo sapiens, UniProt P34949).
T6 sequence (P34949 whole entry): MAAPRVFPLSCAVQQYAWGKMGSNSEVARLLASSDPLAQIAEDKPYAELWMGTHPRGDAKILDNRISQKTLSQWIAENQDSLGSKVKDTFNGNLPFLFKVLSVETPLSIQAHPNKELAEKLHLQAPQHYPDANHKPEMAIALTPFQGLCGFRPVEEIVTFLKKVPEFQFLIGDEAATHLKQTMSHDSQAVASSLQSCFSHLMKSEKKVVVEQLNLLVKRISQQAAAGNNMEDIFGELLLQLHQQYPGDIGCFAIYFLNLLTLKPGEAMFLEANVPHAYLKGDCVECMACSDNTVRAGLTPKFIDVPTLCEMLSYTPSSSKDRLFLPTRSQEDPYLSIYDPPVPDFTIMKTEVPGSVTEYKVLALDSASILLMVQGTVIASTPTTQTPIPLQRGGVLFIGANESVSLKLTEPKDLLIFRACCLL
The test can be described thus: MPI inhibition at elevated mannose 6-phosphate – biochemical, fluorescence intensity, high mannose 6-phosphate, primary screen (AID 1220).

For the next test, the target named is T7, Caspase-6 (Homo sapiens, UniProt P55212).
T7 sequence (P55212 whole entry): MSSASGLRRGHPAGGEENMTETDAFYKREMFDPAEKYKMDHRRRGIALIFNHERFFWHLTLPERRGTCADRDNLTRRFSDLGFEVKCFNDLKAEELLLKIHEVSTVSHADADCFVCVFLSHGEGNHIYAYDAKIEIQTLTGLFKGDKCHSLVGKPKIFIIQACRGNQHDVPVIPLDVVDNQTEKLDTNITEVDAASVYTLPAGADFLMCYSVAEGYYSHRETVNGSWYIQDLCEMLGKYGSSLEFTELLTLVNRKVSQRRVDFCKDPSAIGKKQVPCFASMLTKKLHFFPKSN
As to the kind of experiment: inhibition of CASP6 peptide cleavage – biochemical, VEID-R110 fluorescence, cherry-pick, dose response (AID 720632).

Chain of Albumin (P02769 whole entry): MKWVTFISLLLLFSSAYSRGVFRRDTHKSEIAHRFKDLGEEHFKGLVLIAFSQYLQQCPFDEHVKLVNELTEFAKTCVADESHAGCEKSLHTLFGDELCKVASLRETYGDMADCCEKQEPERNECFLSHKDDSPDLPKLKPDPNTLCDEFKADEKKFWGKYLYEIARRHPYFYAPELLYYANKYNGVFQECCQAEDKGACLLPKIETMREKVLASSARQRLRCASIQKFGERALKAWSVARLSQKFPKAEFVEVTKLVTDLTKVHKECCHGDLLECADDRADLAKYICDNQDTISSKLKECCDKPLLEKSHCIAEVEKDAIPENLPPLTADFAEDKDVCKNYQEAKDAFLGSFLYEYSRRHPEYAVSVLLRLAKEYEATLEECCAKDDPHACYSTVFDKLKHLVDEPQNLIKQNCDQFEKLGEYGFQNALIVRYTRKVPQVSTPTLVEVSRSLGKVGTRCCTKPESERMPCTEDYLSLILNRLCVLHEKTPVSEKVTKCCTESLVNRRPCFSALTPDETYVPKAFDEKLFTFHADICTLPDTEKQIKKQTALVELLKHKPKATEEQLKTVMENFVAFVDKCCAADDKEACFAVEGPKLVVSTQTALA
Chain of Induced myeloid leukemia cell differentiation protein Mcl-1 (Q07820 whole entry): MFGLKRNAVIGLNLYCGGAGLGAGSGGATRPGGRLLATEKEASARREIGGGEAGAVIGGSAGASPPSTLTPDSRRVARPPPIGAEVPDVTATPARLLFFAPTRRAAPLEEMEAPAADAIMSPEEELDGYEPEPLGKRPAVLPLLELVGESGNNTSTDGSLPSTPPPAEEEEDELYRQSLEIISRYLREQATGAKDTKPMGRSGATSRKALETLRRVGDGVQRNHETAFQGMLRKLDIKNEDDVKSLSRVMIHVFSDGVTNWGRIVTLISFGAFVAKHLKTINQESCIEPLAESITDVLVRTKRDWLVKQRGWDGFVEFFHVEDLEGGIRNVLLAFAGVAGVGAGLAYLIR
Chain of Eukaryotic translation initiation factor 4E (P63073 whole entry): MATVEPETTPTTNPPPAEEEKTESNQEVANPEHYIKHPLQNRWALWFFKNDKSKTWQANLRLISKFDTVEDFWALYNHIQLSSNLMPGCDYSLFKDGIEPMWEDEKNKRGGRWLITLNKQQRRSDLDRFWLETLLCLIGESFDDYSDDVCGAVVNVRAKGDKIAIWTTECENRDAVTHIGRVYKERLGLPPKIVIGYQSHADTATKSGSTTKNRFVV
Chain of Large T antigen (P03070 whole entry): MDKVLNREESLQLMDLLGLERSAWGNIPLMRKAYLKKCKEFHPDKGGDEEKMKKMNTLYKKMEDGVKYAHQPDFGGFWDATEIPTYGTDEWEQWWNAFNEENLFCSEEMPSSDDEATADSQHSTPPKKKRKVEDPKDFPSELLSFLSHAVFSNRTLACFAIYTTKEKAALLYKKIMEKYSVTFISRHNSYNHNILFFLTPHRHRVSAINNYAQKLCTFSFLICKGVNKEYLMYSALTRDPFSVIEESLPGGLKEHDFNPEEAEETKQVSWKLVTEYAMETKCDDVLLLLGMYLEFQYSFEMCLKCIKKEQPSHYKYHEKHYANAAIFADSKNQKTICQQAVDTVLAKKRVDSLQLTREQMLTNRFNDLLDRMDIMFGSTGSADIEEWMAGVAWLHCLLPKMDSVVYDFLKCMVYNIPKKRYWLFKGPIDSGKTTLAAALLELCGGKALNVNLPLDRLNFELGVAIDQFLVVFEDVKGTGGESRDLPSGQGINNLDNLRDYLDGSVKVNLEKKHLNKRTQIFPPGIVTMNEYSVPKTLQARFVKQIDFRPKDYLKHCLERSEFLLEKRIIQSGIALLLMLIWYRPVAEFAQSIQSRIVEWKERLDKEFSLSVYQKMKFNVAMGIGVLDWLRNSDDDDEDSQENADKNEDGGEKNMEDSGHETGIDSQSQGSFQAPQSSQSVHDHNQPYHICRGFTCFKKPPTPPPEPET
Chain of Genome polyprotein (P29990 2492-3391 limits assumed): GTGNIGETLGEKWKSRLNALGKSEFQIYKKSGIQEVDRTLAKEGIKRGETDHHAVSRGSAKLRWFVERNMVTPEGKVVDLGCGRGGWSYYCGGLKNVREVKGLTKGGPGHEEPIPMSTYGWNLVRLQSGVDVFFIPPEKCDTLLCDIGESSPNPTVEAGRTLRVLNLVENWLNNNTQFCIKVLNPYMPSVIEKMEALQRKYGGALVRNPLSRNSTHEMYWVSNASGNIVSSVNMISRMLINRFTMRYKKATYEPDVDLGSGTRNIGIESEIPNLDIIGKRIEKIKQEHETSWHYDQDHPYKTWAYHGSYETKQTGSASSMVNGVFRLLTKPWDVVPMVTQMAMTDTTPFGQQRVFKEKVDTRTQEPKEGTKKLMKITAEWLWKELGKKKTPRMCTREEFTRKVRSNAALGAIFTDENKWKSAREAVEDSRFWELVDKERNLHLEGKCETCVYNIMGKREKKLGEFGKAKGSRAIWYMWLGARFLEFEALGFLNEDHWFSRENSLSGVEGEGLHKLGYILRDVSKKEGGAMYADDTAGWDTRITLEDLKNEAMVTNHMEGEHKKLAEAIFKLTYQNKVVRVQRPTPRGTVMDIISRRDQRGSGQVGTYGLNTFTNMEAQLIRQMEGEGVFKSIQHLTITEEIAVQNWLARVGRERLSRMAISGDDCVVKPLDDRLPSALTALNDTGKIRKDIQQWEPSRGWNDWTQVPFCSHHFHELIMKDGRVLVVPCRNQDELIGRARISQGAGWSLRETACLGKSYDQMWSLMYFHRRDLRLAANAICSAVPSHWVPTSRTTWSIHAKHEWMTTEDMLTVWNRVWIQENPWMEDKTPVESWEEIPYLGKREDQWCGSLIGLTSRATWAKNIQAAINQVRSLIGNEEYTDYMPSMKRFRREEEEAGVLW

For the compound `Cc1cc(C)c2c(N)c(C(=O)NN)sc2n1`, the IC50 at Albumin was > 94.1 µM (inactive).
Take `O=C(CSc1nc2cc3ccccc3cc2[nH]1)Nc1ccc(F)cc1`: the IC50 was 51.7 µM (inactive) in [1], 119 µM (inactive) in test [2] and 100 µM (inactive) in test [3].
In the case of `COc1cccc(NC(=O)Nc2ccc(C(C)(C)C)cc2)c1`, the IC50 in [4] was 50 µM (inactive). Besides, in test [5], the AC50 is > 100 µM (inactive).
For `O=C(COc1ccc(C(=O)c2ccccc2)cc1)Nc1cccnc1`, the EC50 in “cells” is > 29.9 µM (inactive). Besides, on Galanin receptor type 3, the IC50 was 399 nM (active).
For `Cc1cc(-c2nc3ccccc3o2)c2ccccc2n1`, the IC50 in test [6] was 2.96 µM (active). Further, the EC50 in [7] was > 50 µM (active).
On to `CC(=O)c1cccc(NC(S)=NC2CCCCCCC2)c1`, for which, in test [5], the AC50 was > 100 µM (inactive).
`CCOc1ccc(N2Nc3[nH]nc(N)c3N2)cc1`: the IC50 at Large T antigen was 18 µM (active); in [8], 40.6 µM (active); in test [9] it was 52.3 µM (active).
With `COc1cc2c(cc1N=C(S)Nc1cccc(C)c1)oc1ccccc12`, the IC50 in test [6] was 5.82 µM (active).
With `C[C@@H]1C=C(C(=O)NCc2nc3ccccc3[nH]2)O[C@H](OCc2ccc(CO)cc2)C1`, the IC50 was 83.3 µM (inactive) in test [1], 2.04 µM (active) in test [2] and 1.47 µM (active) in test [3].
The corresponding values for `OC(c1cc(Cl)cc(Cl)c1)c1nc(-c2ccccc2F)c[nH]1` (centres undefined) are 74.4 µM (inactive), 9.87 µM (active) and 6.33 µM (active).
As to `N#CCC(=O)N/N=C/c1ccc(N2N=C(c3ccccc3)CC2c2ccccc2)cc1` (centres undefined), the IC50 in test [6] is 0.198 µM (active).
`O=C(CCN1CCN(c2ccccc2)CC1)N/N=C/c1ccc(O)c(O)c1O`: the IC50 at Genome polyprotein was 30.1 µM (active); in test [10], 6.59 µM (active); in test [13] it was > 50 µM (not active); on Albumin it was > 94.1 µM (inactive). The EC50 in test [11] is > 150 µM (inactive); in [12], 3.04 µM (active). Moreover, on Caspase-6, the AC50 was 1.11 µM (active).
